Consider 18 compounds from US12503475B2 (Centessa Pharmaceuticals (UK) Limited, priority 2020, dated 2025).

What is called Emax is the greatest response seen or fitted, relative to the assay's reference.

This experiment deals with T1, human orexin type 2 receptor (hOX2R) (Homo sapiens, UniProt O43614).
T1 construct: expressed in transfected cells
T1 sequence (O43614 1-444): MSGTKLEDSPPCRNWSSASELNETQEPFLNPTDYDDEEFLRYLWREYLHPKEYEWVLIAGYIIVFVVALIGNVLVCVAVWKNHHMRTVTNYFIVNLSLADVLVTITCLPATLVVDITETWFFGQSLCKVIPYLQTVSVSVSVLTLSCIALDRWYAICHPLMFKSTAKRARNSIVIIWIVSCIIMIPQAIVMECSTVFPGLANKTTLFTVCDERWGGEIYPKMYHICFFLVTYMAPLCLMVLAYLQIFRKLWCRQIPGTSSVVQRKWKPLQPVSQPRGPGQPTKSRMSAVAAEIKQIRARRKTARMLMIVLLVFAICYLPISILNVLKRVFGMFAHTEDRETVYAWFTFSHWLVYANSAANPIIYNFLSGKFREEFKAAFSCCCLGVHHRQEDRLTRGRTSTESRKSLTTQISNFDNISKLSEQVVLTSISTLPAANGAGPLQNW
Briefly: Measurement of orexin type 2 receptor agonist activity (FLIPR calcium fluorescence). In kind it is cell-based. As to conditions: CHO cells expressing hOX2R, FLIPR calcium fluorescence; for EC50: read-out: hOx2 pEC50 (converted); for Emax: CHO, read-out: hOx2 Emax (%). In a few lines: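 Agonism was read as fluorescence in cells stably expressing human OX2R. E. is the response at 10 μM relative to orexin A as full agonist (100%).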

`CC(C)(O)C(=O)N1CC2(CC2)[C@H](NS(=O)(=O)CF)[C@@H]1Cc1cccc(-c2cccc(F)c2)c1F` [Compound 177, N-((6S,7S)-6-((2,3′-difluoro-[1,1′-biphenyl]-3-yl)methyl)-5-(2-hydroxy-2-methylpropanoyl)-5-azaspiro[2.4]heptan-7-yl)-1-fluoromethanesulfonamide]: the EC50 was 1 to 10 nM and the Emax is 90 to 100%.

Turning to `CCS(=O)(=O)N[C@@H]1[C@H](Cc2cccc(-c3ccccc3)c2F)N(C(=O)[C@H](O)CF)CC12CC2` [Compound 178], the EC50 is 1 to 10 nM and the Emax was in the range of 90 to 100%.

Consider `CC(F)(F)C(=O)N1CC2(CC2)[C@H](NS(=O)(=O)CF)[C@@H]1Cc1cccc(-c2cccc(F)c2)c1F` [Compound 179, N-((6S,7S)-6-((2,3′-difluoro-[1,1′-biphenyl]-3-yl)methyl)-5-(2,2-difluoropropanoyl)-5-azaspiro[2.4]heptan-7-yl)-1-fluoromethanesulfonamide], for which the EC50 was 1 to 10 nM and the Emax lay in the range of 70 to 80%.

With `COC1(C(=O)N2CC3(CC3)[C@H](NS(=O)(=O)CF)[C@@H]2Cc2cccc(-c3ccccc3)c2F)CC1` [Compound 180, 1-fluoro-N-((6S,7S)-6-((2-fluoro-[1,1′-biphenyl]-3-yl)methyl)-5-(1-methoxycyclopropane-1-carbonyl)-5-azaspiro[2.4]heptan-7-yl)methanesulfonamide], the EC50 was 1 to 10 nM and the Emax fell in the range of 90 to 100%.

On to `N#CC1(C(=O)N2CC3(CC3)[C@H](NS(=O)(=O)CF)[C@@H]2Cc2cccc(-c3ccccc3)c2F)CCC1` [Compound 181, N-((6S,7S)-5-(1-cyanocyclobutane-1-carbonyl)-6-((2-fluoro-[1,1′-biphenyl]-3-yl)methyl)-5-azaspiro[2.4]heptan-7-yl)-1-fluoromethanesulfonamide], for which the EC50 was 1 to 10 nM and the Emax lay within 90 to 100%.

Regarding `O=C([C@H]1C[C@H](F)C1)N1CC2(CC2)[C@H](NS(=O)(=O)C(F)F)[C@@H]1Cc1cccc(-c2ccccc2)c1F` [Compound 182, 1,1-difluoro-N-((6S,7S)-6-((2-fluoro-[1,1′-biphenyl]-3-yl)methyl)-5-((1r,3r)-3-fluorocyclobutane-1-carbonyl)-5-azaspiro[2.4]heptan-7-yl)methanesulfonamide], the EC50 was 1 to 10 nM and the Emax fell in the range of 90 to 100%.

For `COC[C@H](O)C(=O)N1CC2(CC2)[C@H](NS(=O)(=O)C(F)F)[C@@H]1Cc1cccc(-c2ccccc2)c1F` [Compound 183, 1,1-difluoro-N-((6S,7S)-6-((2-fluoro-[1,1′-biphenyl]-3-yl)methyl)-5-((S)-2-hydroxy-3-methoxypropanoyl)-5-azaspiro[2.4]heptan-7-yl)methanesulfonamide], the EC50 is 1 to 10 nM and the Emax lay within 90 to 100%.

On to `CCS(=O)(=O)N[C@@H]1[C@H](Cc2cccc(-c3cccc(F)c3)c2F)N(C(=O)C(C)(C)O)CC12CC2` [Compound 184, N-((6S,7S)-6-((2,3′-difluoro-[1,1′-biphenyl]-3-yl)methyl)-5-(2-hydroxy-2-methylpropanoyl)-5-azaspiro[2.4]heptan-7-yl)ethanesulfonamide], for which the EC50 is 1 to 10 nM and the Emax was in the range of 90 to 100%.

As for `CCS(=O)(=O)N[C@@H]1[C@H](Cc2cccc(-c3cc(F)cc(F)c3)c2F)N(C(=O)[C@H]2CCO2)CC12CC2` [Compound 185, N-((6S,7S)-5-((R)-oxetane-2-carbonyl)-6-((2,3′,5′-trifluoro-[, 1′-biphenyl]-3-yl)methyl)-5-azaspiro[2.4]heptan-7-yl)ethanesulfonamide], the EC50 was 0.0794 to 1 nM and the Emax was in the range of 90 to 100%.

For `N#CC1(CNC(=O)N2CC3(CC3)[C@H](NS(=O)(=O)CF)[C@@H]2Cc2cccc(-c3ccccc3)c2F)CC1` [Compound 186, (6S,7S)-N-((1-cyanocyclopropyl)methyl)-6-((2-fluoro-[1,1′-biphenyl]-3-yl)methyl)-7-((fluoromethyl)sulfonamido)-5-azaspiro[2.4]heptane-5-carboxamide], the EC50 is 0.0794 to 1 nM and the maximum response (Emax) was in the range of 90 to 100%.

Take `O=C(NCC(F)F)N1CC2(CC2)[C@H](NS(=O)(=O)CF)[C@@H]1Cc1cccc(-c2ccccc2)c1F` [Compound 187, (6S,7S)-N-(2,2-difluoroethyl)-6-((2-fluoro-[1,1′-biphenyl]-3-yl)methyl)-7-((fluoromethyl)sulfonamido)-5-azaspiro[2.4]heptane-5-carboxamide]: the EC50 is 0.0794 to 1 nM and the maximal effect (Emax) fell in the range of 90 to 100%.

As for `O=C([C@H]1C[C@H](F)C1)N1CC2(CC2)[C@H](NS(=O)(=O)CF)[C@@H]1Cc1cccc(-c2ccccc2)c1F` [Compound 188], the EC50 was 1 to 10 nM and the Emax was 90 to 100%.

Regarding `O=C([C@H]1C[C@@H](F)C1)N1CC2(CC2)[C@H](NS(=O)(=O)CF)[C@@H]1Cc1cccc(-c2ccccc2)c1F` [Compound 189], the EC50 is 1 to 10 nM and the Emax lay within 90 to 100%.

On to `O=C([C@H](O)CF)N1CC2(CC2)[C@H](NS(=O)(=O)CF)[C@@H]1Cc1cc(F)cc(-c2ccccc2)c1F` [Compound 190, N-((6S,7S)-6-((2,5-difluoro-[1,1′-biphenyl]-3-yl)methyl)-5-((S)-3-fluoro-2-hydroxypropanoyl)-5-azaspiro[2.4]heptan-7-yl)-1-fluoromethanesulfonamide], for which the EC50 was 1 to 10 nM and the Emax is 90 to 100%.

In the case of `O=C(NCC(F)F)N1CC2(CC2)[C@H](NS(=O)(=O)CF)[C@@H]1Cc1cc(F)cc(-c2ccccc2)c1F` [Compound 191, (6S,7S)-6-((2,5-difluoro-[1,1′-biphenyl]-3-yl)methyl)-N-(2,2-difluoroethyl)-7-((fluoromethyl)sulfonamido)-5-azaspiro[2.4]heptane-5-carboxamide], the EC50 is 1 to 10 nM and the Emax fell in the range of 90 to 100%.

For the compound `CC(C)(O)C(=O)N1CC2(CC2)[C@H](NS(=O)(=O)CF)[C@@H]1Cc1cccc(-c2cc(F)cc(F)c2)c1F` [Compound 192, 1-fluoro-N-((6S,7S)-5-(2-hydroxy-2-methylpropanoyl)-6-((2,3′,5′-trifluoro-[1,1′-biphenyl]-3-yl)methyl)-5-azaspiro[2.4]heptan-7-yl)methanesulfonamide], the EC50 was 1 to 10 nM and the Emax fell in the range of 90 to 100%.

As to `C[C@@H](F)S(=O)(=O)N[C@@H]1[C@H](Cc2cccc(-c3ccccc3)c2F)N(C(=O)[C@H]2CCO2)CC12CC2` [Compound 193, (S)-1-fluoro-N-((6S,7S)-6-((2-fluoro-[1,1′-biphenyl]-3-yl)methyl)-5-((R)-oxetane-2-carbonyl)-5-azaspiro[2.4]heptan-7-yl)ethane-1-sulfonamide], the EC50 was 1 to 10 nM and the Emax lay in the range of 90 to 100%.

As to `C[C@H](F)S(=O)(=O)N[C@@H]1[C@H](Cc2cccc(-c3ccccc3)c2F)N(C(=O)[C@H]2CCO2)CC12CC2` [Compound 194, (R)-1-fluoro-N-((6S,7S)-6-((2-fluoro-[1,1′-biphenyl]-3-yl)methyl)-5-((R)-oxetane-2-carbonyl)-5-azaspiro[2.4]heptan-7-yl)ethane-1-sulfonamide], the EC50 is 1 to 10 nM and the Emax is 90 to 100%.
